This is an account of results in ChEMBL document CHEMBL4665751, “Discovery of Clinical Candidate (5-(3-(4-Chlorophenoxy)prop-1-yn-1-yl)-3-hydroxypicolinoyl)glycine, an Orally Bioavailable Prolyl Hydroxylase Inhibitor for the Treatment of Anemia” (J Med Chem, 2020).

Experiment [1] deals with Egl nine homolog 1 (Homo sapiens, UniProt Q9GZT9). Put plainly: Inhibition of FITC-HIF1alpha (556 to 574 residues) binding to PHD2 (181 to 426 residues) (unknown origin) by fluorescence polarization assay. A general note: In fluorescence polarisation assays a small probe gives low polarisation when free and higher when bound to something large.
A short description of experiment [2]: In vivo inhibition of PHD2 in C57BL/6 mouse assessed as increase in EPO plasma level by measuring EPO level at 15 mg/kg, iv measured after 4 hrs by ELISA. The experiment is classed as functional.
Experiment [3] has as its system Mus musculus. The experiment is described as follows: Antianemic activity in cisplatin-induced C57BL/6 mouse anemia model assessed as improvement in anemia at 25 mg/kg, po administered every other day for 1 month. The experiment is classed as functional. The settings on record: time 1 months, 730 h.
Experiment [4] has as its system Mus musculus. Put plainly: Antianemic activity in cisplatin-induced C57BL/6 mouse anemia model assessed as improvement in anemia at 10 mg/kg, po administered every other day for 1 month. The experiment is classed as functional. The settings on record: time 1 months, 730 h.
Experiment [5] has as its system Mus musculus. Put plainly: Antianemic activity in cisplatin-induced C57BL/6 mouse anemia model assessed as increase in haemoglobin level administered orally every other day for 1 month. In kind it is functional, organism-based. The settings on record: dose mg/kg 10-25, time 1.0 months.
For experiment [6], the system named is Mus musculus. Put plainly: Induction of erythropoiesis in po dosed C57BL/6 mouse assessed as increase in red blood cell count administered thrice for 3 days measured 4 hrs post last dose. In kind it is functional, organism-based. The settings on record: dose mg/kg 5-50, time 72.0 hrs.
The test system of experiment [7] is Mus musculus. Put plainly: In vivo inhibition of PHD2 in C57BL/6 mouse assessed as upregulation of EPO plasma level by measuring EPO level at 15 mg/kg, po measured after 4 hrs by ELISA. The experiment is classed as functional, organism-based. In general terms: An ELISA detects its analyte on a solid surface through an enzyme-linked reagent.
For experiment [8], the system named is Mus musculus. The experiment is described as follows: In vivo inhibition of PHD2 in po dosed C57BL/6 mouse assessed as upregulation of EPO plasma level administered 4 times for 3 days by ELISA. The settings on record: dose mg/kg 5-50, time 3.0 day. In kind it is functional, organism-based.

Active and inactive are the calls of the source. No cut-off for these calls is given here.

Chain of Egl nine homolog 1 (Q9GZT9 whole entry, the tested form may be a part): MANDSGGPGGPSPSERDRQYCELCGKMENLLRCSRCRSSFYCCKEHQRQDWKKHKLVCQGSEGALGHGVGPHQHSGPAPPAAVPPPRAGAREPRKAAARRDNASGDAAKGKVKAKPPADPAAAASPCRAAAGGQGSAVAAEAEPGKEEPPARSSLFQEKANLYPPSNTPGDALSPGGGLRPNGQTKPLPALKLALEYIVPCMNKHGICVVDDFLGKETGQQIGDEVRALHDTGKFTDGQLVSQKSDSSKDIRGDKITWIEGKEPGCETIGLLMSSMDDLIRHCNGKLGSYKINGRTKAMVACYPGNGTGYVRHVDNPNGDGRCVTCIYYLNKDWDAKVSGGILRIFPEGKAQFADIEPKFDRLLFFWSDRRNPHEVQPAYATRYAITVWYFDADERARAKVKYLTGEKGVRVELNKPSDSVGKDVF

What is called IC50 is the concentration at which inhibition is half-maximal. Read a low IC50 as inhibition by little substance. `O=C(O)CNC(=O)c1ncc(C#CCOc2ccccc2C(F)(F)F)cc1O` came in with an IC50 in experiment [1] of 1.07 µM. Regarding `COc1ccccc1OCC#Cc1cnc(C(=O)NCC(=O)O)c(O)c1`, the IC50 in experiment [1] was 0.218 µM. Still for that read-out and setting: the result for `O=C(O)CNC(=O)c1ncc(C#CCOc2cccc3ccccc23)cc1O` reads 0.346 µM. Consider `COc1ccc(OCC#Cc2cnc(C(=O)NCC(=O)O)c(O)c2)cc1`, for which the Activity in experiment [2] was >1000 pg/mL.

Turning to `N#Cc1ccc(OCC#Cc2cnc(C(=O)NCC(=O)O)c(O)c2)cc1`, the IC50 in experiment [1] is 0.263 µM.

Turning to `O=C(O)CNC(=O)c1ncc(C#CCOc2ccccc2Cl)cc1O`, the Activity in experiment [2] is >1000 pg/mL. As to `O=C(O)CNC(=O)c1ncc(C#CCOc2cccc(Cl)c2)cc1O`, in experiment [1], the IC50 is 0.587 µM.

`O=C(O)CNC(=O)c1ncc(C#CCOc2cccc(C(F)(F)F)c2)cc1O` came in with an IC50 in experiment [1] of 0.877 µM. `O=C(O)CNC(=O)c1ncc(C#CCOc2cccc(F)c2)cc1O` showed an IC50 in experiment [1] of 0.256 µM. Take `Cc1cccc(OCC#Cc2cnc(C(=O)NCC(=O)O)c(O)c2)c1`: the Activity in experiment [2] is >1000 pg/mL. The IC50 in experiment [1] amounted to 0.125 µM. Take `O=C(O)CNC(=O)c1ncc(C#CCOCc2ccc(Cl)cc2)cc1O`: the IC50 in experiment [1] stood at 0.0843 µM. The same measure, in the same setting: for `O=C(O)CNC(=O)c1ncc(C#CCOCCc2ccc(Cl)cc2)cc1O` the value was 0.408 µM; for `O=C(O)CNC(=O)c1ncc(C#CCOc2ccc(-c3ccccc3)cc2)cc1O`, 0.825 µM; for `COc1cccc(OCC#Cc2cnc(C(=O)NCC(=O)O)c(O)c2)c1`, 0.428 µM. Same read-out and setting: the result for `CN(CC#Cc1cnc(C(=O)NCC(=O)O)c(O)c1)c1ccccc1` reads 0.454 µM. As to `Cc1nc(C(=O)NCC(=O)O)c(O)c2ccc(Oc3ccccc3)cc12` [ROXADUSTAT], the Activity in experiment [3] was 115.2%; in experiment [4], 86.4%; in experiment [6], “Dose-dependent effect”. Further, the outcome in experiment [5] was Active. In experiment [7], the inhibition result is “Active”. The inhibition result in experiment [8] is “Dose-dependent effect”.
